Measurements taken from the NIST ThermoML archive (doi:10.1021/acs.jced.8b00132).
Where “and” joins values, the source holds several entries; their conditions need not be identical. Equal entries are not always repeated.

Settings: transient hot wire

O=C(C(F)(F)C(F)(F)F)C(F)(C(F)(F)F)C(F)(F)F [dodecafluoro-2-methylpentan-3-one]
Settings | thermal conductivity
301.59 K, 15869 kPa, Liquid | 0.06313 W/m/K
301.6 K, 48023 kPa, Liquid | 0.07341 W/m/K
301.6 K, 48035 kPa, Liquid | 0.07339 W/m/K
301.61 K, 9935 kPa, Liquid | 0.06132 W/m/K
301.61 K, 9939 kPa, Liquid | 0.0613 W/m/K
301.63 K, 185 kPa, Liquid | 0.05695 W/m/K
301.63 K, 186 kPa, Liquid | 0.05695 W/m/K
301.65 K, 38555 kPa, Liquid | 0.07081 W/m/K
301.65 K, 38556 kPa, Liquid | 0.07081 W/m/K
301.66 K, 4510 kPa, Liquid | 0.05903 W/m/K
301.67 K, 181 kPa, Liquid | 0.05696 W/m/K and 0.05695 W/m/K
301.67 K, 4513 kPa, Liquid | 0.05926 W/m/K
301.68 K, 68591 kPa, Liquid | 0.07706 W/m/K
301.68 K, 68604 kPa, Liquid | 0.07747 W/m/K
301.69 K, 29956 kPa, Liquid | 0.06826 W/m/K
301.69 K, 29958 kPa, Liquid | 0.06828 W/m/K
301.69 K, 68130 kPa, Liquid | 0.07843 W/m/K
301.7 K, 58476 kPa, Liquid | 0.07534 W/m/K
301.7 K, 68201 kPa, Liquid | 0.07832 W/m/K
301.71 K, 22368 kPa, Liquid | 0.06584 W/m/K and 0.06583 W/m/K
301.71 K, 48170 kPa, Liquid | 0.07234 W/m/K
301.71 K, 58480 kPa, Liquid | 0.07563 W/m/K
301.72 K, 15988 kPa, Liquid | 0.06294 W/m/K
301.72 K, 15989 kPa, Liquid | 0.0629 W/m/K
301.72 K, 48184 kPa, Liquid | 0.07274 W/m/K
301.73 K, 38646 kPa, Liquid | 0.06956 W/m/K
301.73 K, 38651 kPa, Liquid | 0.0696 W/m/K
301.75 K, 9736 kPa, Liquid | 0.06053 W/m/K
301.75 K, 59377 kPa, Liquid | 0.07624 W/m/K
301.75 K, 59380 kPa, Liquid | 0.07624 W/m/K
301.75 K, 68800 kPa, Liquid | 0.07711 W/m/K
301.76 K, 9735 kPa, Liquid | 0.06062 W/m/K
301.76 K, 15639 kPa, Liquid | 0.06344 W/m/K
301.76 K, 29978 kPa, Liquid | 0.06731 W/m/K
301.76 K, 68808 kPa, Liquid | 0.07639 W/m/K
301.77 K, 15644 kPa, Liquid | 0.06346 W/m/K
301.78 K, 121 kPa, Liquid | 0.05702 W/m/K and 0.05701 W/m/K
301.79 K, 4434 kPa, Liquid | 0.05801 W/m/K
301.79 K, 4440 kPa, Liquid | 0.05822 W/m/K
301.79 K, 22438 kPa, Liquid | 0.06507 W/m/K
301.79 K, 22452 kPa, Liquid | 0.06502 W/m/K
301.82 K, 102 kPa, Liquid | 0.05674 W/m/K
301.82 K, 48012 kPa, Liquid | 0.07336 W/m/K
301.82 K, 48021 kPa, Liquid | 0.07338 W/m/K
301.83 K, 95 kPa, Liquid | 0.05685 W/m/K
301.85 K, 9941 kPa, Liquid | 0.06128 W/m/K
301.85 K, 9948 kPa, Liquid | 0.06126 W/m/K
301.87 K, 38549 kPa, Liquid | 0.07078 W/m/K
301.87 K, 38555 kPa, Liquid | 0.07047 W/m/K
301.88 K, 34 kPa, Gas | 0.01211 W/m/K
301.88 K, 35 kPa, Gas | 0.01203 W/m/K
301.9 K, 185 kPa, Liquid | 0.05689 W/m/K
301.91 K, 185 kPa, Liquid | 0.05664 W/m/K
301.91 K, 4509 kPa, Liquid | 0.059 W/m/K
301.91 K, 29959 kPa, Liquid | 0.06823 W/m/K
301.91 K, 67990 kPa, Liquid | 0.07824 W/m/K
301.91 K, 68063 kPa, Liquid | 0.07829 W/m/K
301.92 K, 29958 kPa, Liquid | 0.06824 W/m/K
301.93 K, 181 kPa, Liquid | 0.05689 W/m/K and 0.05687 W/m/K
301.94 K, 4507 kPa, Liquid | 0.05898 W/m/K
301.95 K, 22372 kPa, Liquid | 0.06576 W/m/K
301.95 K, 22377 kPa, Liquid | 0.06549 W/m/K
301.97 K, 59371 kPa, Liquid | 0.07623 W/m/K
301.97 K, 59377 kPa, Liquid | 0.07622 W/m/K
302.01 K, 15644 kPa, Liquid | 0.06317 W/m/K
302.01 K, 15646 kPa, Liquid | 0.06342 W/m/K
302.03 K, 121 kPa, Liquid | 0.05696 W/m/K
302.04 K, 15871 kPa, Liquid | 0.0631 W/m/K
302.04 K, 15874 kPa, Liquid | 0.0632 W/m/K
302.04 K, 48005 kPa, Liquid | 0.07334 W/m/K
302.05 K, 48000 kPa, Liquid | 0.07334 W/m/K
302.09 K, 9944 kPa, Liquid | 0.06121 W/m/K
302.09 K, 68569 kPa, Liquid | 0.07801 W/m/K
302.09 K, 68583 kPa, Liquid | 0.07807 W/m/K
302.1 K, 9951 kPa, Liquid | 0.06119 W/m/K
302.1 K, 38544 kPa, Liquid | 0.07073 W/m/K
302.11 K, 38546 kPa, Liquid | 0.07074 W/m/K
302.13 K, 58450 kPa, Liquid | 0.07511 W/m/K
302.13 K, 58453 kPa, Liquid | 0.07504 W/m/K
302.15 K, 15982 kPa, Liquid | 0.0631 W/m/K
302.15 K, 29954 kPa, Liquid | 0.06819 W/m/K and 0.0682 W/m/K
302.15 K, 48164 kPa, Liquid | 0.07319 W/m/K
302.16 K, 15975 kPa, Liquid | 0.06301 W/m/K
302.16 K, 48161 kPa, Liquid | 0.07327 W/m/K
